# Results as given in US11230538B2, “Herbicides” (SYNGENTA PARTICIPATIONS AG, priority 2016, dated 2022).
# Columns and labels:
# Assay type in all cases: in vivo
# [1] = test system: Echinochloa crus-galli (ECHCG); experiment: B1 Pre-emergence herbicidal activity; set-up: key to Pre-emergence herbicidal activity, ECHCG (damage score 0-5): 5=total damage to plant; 0=no damage to plant; settings: pre-emergence application, rate 1000 g/ha, evaluated after 13 days
# How it was run: (§1)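 Damage was rated visually on a 0–5 scale (0 no damage, 5 total damage) 13 days after treatment. Soil-sown seeds had been sprayed one day after sowing with an aqueous acetone/water (50:50) solution containing 0.5% Tween 20, then kept in a glasshouse at 24/16 °C, 14 h light, 65% humidity.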
# [2] = test system: Echinochloa crus-galli (ECHCG); experiment: B2 Post-emergence herbicidal activity; set-up: key to Post-emergence herbicidal activity, ECHCG (damage score 0-5): 5=total damage to plant; 0=no damage to plant; settings: post-emergence application, rate 1000 g/ha, evaluated after 13 days
# How it was run: (§2)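 Visual damage score (0 = none, 5 = total) taken 13 days after treatment. Seedlings had been cultivated 8 days in pots of standard soil before being sprayed with an aqueous solution of compound in acetone/water (50:50) containing 0.5% Tween 20.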
# [3] = test system: Avena fatua (AVEFA); experiment: B2 Post-emergence herbicidal activity; settings: post-emergence application, rate 1000 g/ha, evaluated after 13 days
# How it was run: as §2
# [4] = test system: Lolium perenne (LOLPE); experiment: B2 Post-emergence herbicidal activity; settings: post-emergence application, rate 1000 g/ha, evaluated after 13 days
# How it was run: as §2
# [5] = test system: Setaria fabenri (SETFA); experiment: B2 Post-emergence herbicidal activity; set-up: key: 5=total damage to plant; 0=no damage to plant; settings: post-emergence application, rate 1000 g/ha, evaluated after 13 days
# How it was run: as §2
# [6] = test system: Triticum aestivium (TRZAW); experiment: B2 Post-emergence herbicidal activity; set-up: key: 5=total damage to plant; 0=no damage to plant; settings: post-emergence application, rate 1000 g/ha, evaluated after 13 days
# How it was run: as §2
# [7] = test system: Alopecurus myosuroides (ALOMY); experiment: B2 Post-emergence herbicidal activity; set-up: key: 5=total damage to plant; 0=no damage to plant; settings: post-emergence application, rate 1000 g/ha, evaluated after 13 days
# How it was run: as §2
# [8] = test system: Setaria fabenr (SETFA); experiment: B1 Pre-emergence herbicidal activity; set-up: key to Pre-emergence herbicidal activity, SETFA (damage score 0-5): 5=total damage to plant; 0=no damage to plant; settings: pre-emergence application, rate 1000 g/ha, evaluated after 13 days
# How it was run: as §1
# [9] = test system: Triticum aestivium (TRZAW); experiment: B1 Pre-emergence herbicidal activity; set-up: key: 5=total damage to plant; 0=no damage to plant; settings: pre-emergence application, rate 1000 g/ha, evaluated after 13 days
# How it was run: as §1
# [10] = test system: Avena fatua (AVEFA); experiment: B1 Pre-emergence herbicidal activity; set-up: key: 5=total damage to plant; 0=no damage to plant; settings: pre-emergence application, rate 1000 g/ha, evaluated after 13 days
# How it was run: as §1
# [11] = test system: Alopecurus myosuroides (ALOMY); experiment: B1 Pre-emergence herbicidal activity; set-up: key: 5=total damage to plant; 0=no damage to plant; settings: pre-emergence application, rate 1000 g/ha, evaluated after 13 days
# How it was run: as §1
# [12] = test system: Lolium perenne (LOLPE); experiment: B1 Pre-emergence herbicidal activity; set-up: key to Pre-emergence herbicidal activity, LOLPE (damage score 0-5): 5=total damage to plant; 0=no damage to plant; settings: pre-emergence application, rate 1000 g/ha, evaluated after 13 days
# How it was run: as §1
Structure (SMILES),"Pre-emergence herbicidal activity, ECHCG (damage score 0-5) [1]","Post-emergence herbicidal activity, ECHCG (damage score 0-5) [2]","Post-emergence herbicidal activity, AVEFA (damage score 0-5) [3]","Post-emergence herbicidal activity, LOLPE (damage score 0-5) [4]","Post-emergence herbicidal activity, SETFA (damage score 0-5) [5]","Post-emergence herbicidal activity, TRAZW (damage score 0-5) [6]","Post-emergence herbicidal activity, ALOMY (damage score 0-5) [7]","Pre-emergence herbicidal activity, SETFA (damage score 0-5) [8]","Pre-emergence herbicidal activity, TRAZW (damage score 0-5) [9]","Pre-emergence herbicidal activity, AVEFA (damage score 0-5) [10]","Pre-emergence herbicidal activity, ALOMY (damage score 0-5) [11]","Pre-emergence herbicidal activity, LOLPE (damage score 0-5) [12]"
Cc1ccc(C(=O)Nc2ccc(-c3cncc(F)c3)nc2C(F)(F)F)cc1 [Compound C30],5,5,4,3,5,0,0,5,0,3,2,1
O=C(Nc1ccc(-c2cncc(F)c2)nc1C(F)(F)F)c1c(F)cccc1F [Compound C31],4,5,3,3,5,0,0,5,0,2,1,0
O=C(Nc1ccc(-c2cncc(F)c2)nc1C(F)(F)F)c1cc(F)c(F)cc1F [Compound C33],1,2,2,1,3,0,0,2,0,1,0,1
CC(C)(C)C(=O)Nc1ccc(-c2cncc(F)c2)nc1C(F)(F)F [Compound C34],2,4,3,2,5,1,1,5,0,0,0,0
